A word on the inhibition: it is the drop in the measured response relative to a control, in per cent. A high value points to a response far below the control.

Experimental findings from publication PMC7072979, “Doxorubicin Inhibits Phosphatidylserine Decarboxylase and Modifies Mitochondrial Membrane Composition in HeLa Cells” (International Journal of Molecular Sciences, 2020) are described below.

For this test, the target named is T1, phosphatidylserine decarboxylase (PSD) (Homo sapiens, UniProt Q9UG56).
T1 construct: gene PISD; native endogenous enzyme in mitochondria isolated from HeLa cells (not purified); proenzyme self-cleaved into alpha and beta subunits
T1 sequence (Q9UG56 53-377): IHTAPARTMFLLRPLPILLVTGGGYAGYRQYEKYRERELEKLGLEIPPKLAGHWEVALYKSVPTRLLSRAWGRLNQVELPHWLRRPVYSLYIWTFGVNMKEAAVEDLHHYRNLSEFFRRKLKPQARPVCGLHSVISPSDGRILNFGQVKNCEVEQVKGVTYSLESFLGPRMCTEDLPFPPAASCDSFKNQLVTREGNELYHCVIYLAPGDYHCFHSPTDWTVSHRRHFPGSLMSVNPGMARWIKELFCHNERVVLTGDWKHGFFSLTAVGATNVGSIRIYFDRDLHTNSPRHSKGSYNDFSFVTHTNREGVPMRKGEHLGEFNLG
T1 sequence (Q9UG56 378-409): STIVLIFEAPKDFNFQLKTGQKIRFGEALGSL
The experiment in a line: PE-NBD formation from PS-NBD, HPTLC fluorescence scan, isolated mitochondria. Format: biochemical.

`COc1cccc2c1C(=O)c1c(O)c3c(c(O)c1C2=O)C[C@@](O)(C(=O)CO)C[C@@H]3O[C@H]1C[C@H](N)[C@H](O)[C@H](C)O1` [Doxorubicin] showed an inhibition at 5 µM of 48%.
